Data on four compounds can be found in patent US11324708B1 (UNION therapeutics A/S, priority 2020, dated 2022).

Data set [1] concerns SARS-CoV-2. As to conditions: SARS-CoV-2 in Vero E6 cells; cited from earlier work.
For data set [2] the following is noted: oral 2 g/day dose.
For data set [3], the system named is SARS-CoV. As to conditions: Vero E6 cells; read-out: EC50 of SARS-CoV replication; cited from earlier work.
Data set [4] is described as follows: in vivo. As to conditions: sheep.
Data set [5] has as its system asthmatic mice. The conditions noted are these: niclosamide dissolved in corn oil, I.P. injection; cited from earlier work.
Data set [6] relates to all targeted strains. The data set can be described thus: Minimum Inhibitory Concentration (MIC) assay, all targeted strains. As to conditions: read-out: MIC against all targeted strains.
Data set [7] concerns the target T1, TMEM16A (Homo sapiens, UniProt Q5XXA6).
T1 sequence (Q5XXA6 1-986): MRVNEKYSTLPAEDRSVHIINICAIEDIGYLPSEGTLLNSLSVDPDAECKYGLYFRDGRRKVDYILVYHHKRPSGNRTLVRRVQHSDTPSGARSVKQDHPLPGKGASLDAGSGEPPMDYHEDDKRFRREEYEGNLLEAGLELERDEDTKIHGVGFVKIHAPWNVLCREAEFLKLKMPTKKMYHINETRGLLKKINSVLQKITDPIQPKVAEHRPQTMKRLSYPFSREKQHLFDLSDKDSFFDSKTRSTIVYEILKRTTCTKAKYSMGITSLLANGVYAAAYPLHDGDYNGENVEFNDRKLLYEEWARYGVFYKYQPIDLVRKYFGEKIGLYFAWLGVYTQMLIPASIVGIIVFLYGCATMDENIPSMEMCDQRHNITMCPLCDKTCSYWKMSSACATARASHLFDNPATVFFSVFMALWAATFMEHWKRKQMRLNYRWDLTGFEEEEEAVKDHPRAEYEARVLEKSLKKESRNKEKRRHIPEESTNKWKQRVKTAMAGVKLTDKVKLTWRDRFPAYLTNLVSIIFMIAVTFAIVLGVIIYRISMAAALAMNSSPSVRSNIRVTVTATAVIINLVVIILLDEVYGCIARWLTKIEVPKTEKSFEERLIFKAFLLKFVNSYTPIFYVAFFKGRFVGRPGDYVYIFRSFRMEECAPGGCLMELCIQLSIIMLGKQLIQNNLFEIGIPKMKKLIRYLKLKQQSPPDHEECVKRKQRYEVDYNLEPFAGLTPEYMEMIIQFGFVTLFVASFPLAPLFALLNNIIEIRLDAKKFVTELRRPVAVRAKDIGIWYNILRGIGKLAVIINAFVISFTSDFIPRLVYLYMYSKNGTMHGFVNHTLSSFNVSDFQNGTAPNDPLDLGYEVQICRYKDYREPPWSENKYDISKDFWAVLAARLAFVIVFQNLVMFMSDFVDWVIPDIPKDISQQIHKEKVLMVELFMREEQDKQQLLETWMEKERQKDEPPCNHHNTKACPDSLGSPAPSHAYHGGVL
The conditions noted are these: cited from earlier work.

In data set [8] the test system is ATCC 29213, MRSA 434844 and S. aureus Newman. The data set can be described thus: Spot test on LB agar, statements for all three strains. It counts as cell-based. The conditions noted are these: for bacterial load in repeated spot test, API in DMSO: only the highest concentrations (niclosamide 100 μg/mL, oxyclozanide 40 μg/mL; 200×-400× MIC of Niclo, 180× MIC Oxy). On the procedure: Following incubation, the formed colonies were counted. […] Duplicates were performed.
As both positive controls were negative further the experiment was repeated using different concentrations in a spot test using the same methodology described above.
In this experiment the negative control was the bacterial suspension only.

In data set [9] the target is T2, TMEM 116F (Homo sapiens, UniProt Q4KMQ2).
T2 sequence (Q4KMQ2 1-910): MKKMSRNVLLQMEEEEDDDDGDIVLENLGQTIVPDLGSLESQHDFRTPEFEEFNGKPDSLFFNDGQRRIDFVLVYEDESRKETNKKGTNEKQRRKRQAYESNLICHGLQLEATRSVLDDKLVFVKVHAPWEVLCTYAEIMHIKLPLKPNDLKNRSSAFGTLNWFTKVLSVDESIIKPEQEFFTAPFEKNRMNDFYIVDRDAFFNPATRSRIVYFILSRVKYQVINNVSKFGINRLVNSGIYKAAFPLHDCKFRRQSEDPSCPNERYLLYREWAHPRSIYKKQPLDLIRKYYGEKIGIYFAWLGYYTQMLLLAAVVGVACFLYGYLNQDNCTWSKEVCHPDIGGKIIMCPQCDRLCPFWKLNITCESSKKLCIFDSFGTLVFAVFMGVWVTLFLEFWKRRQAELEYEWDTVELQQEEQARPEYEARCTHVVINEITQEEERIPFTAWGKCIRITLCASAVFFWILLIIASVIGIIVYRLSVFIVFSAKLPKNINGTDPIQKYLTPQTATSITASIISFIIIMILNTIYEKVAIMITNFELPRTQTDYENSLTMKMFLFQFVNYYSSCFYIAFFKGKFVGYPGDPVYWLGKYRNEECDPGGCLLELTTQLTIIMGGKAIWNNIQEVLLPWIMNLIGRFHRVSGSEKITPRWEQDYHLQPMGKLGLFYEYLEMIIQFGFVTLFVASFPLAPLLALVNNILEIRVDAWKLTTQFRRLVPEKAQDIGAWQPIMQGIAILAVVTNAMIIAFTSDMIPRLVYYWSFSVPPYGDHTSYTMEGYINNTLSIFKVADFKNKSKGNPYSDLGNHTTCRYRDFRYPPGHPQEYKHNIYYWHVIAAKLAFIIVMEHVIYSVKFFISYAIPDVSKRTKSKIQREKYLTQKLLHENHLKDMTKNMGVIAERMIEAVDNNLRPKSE
The conditions noted are these: cited from earlier work.

For orientation: EC50 means the midpoint of the concentration-response curve. As to `CCN(CC)CCCC(C)Nc1ccnc2cc(Cl)ccc12` (stereo not shown) [chloroquine], in [1], the EC50 was 1130 nM.

Broadly, the Cmax is the maximum level reached in the sampled fluid or tissue. The MIC is the lowest concentration that inhibits growth of the organism. Regarding `O=C(Nc1ccc([N+](=O)[O-])cc1Cl)c1cc(Cl)ccc1O` [niclosamide], the “efficacy margin mean systemic exposure of human oral dose to IC90” value in data set [2] was 8 fold. The EC50 in data set [3] was < 100 nM. The Cmax was 577 ng/mL in [4] (systemic exposure Cmax (mean)) and 217 to 803 ng/mL in [4] (systemic exposure Cmax (range)). Further, the “effect in asthmatic mice” value in data set [5] was “reduced mucus production and secretion, as well as bronchoconstriction”. In addition, the MIC in [6] was ≤ 0.5 µg/mL. In data set [7], the “inhibition of Cl- channel TMEM16A” value was “potent inhibitor”. For the same compound, the “bacterial load in repeated spot test, API in DMSO” value in data set [8] is “substantially decreased the bacterial load”. In addition, the “inhibition of Cl- channel TMEM 116F” value in data set [9] was “potent inhibitor”.

Consider `CC(=O)Oc1ccccc1C(=O)Nc1ncc([N+](=O)[O-])s1` [nitazoxanide], for which the EC50 in [1] was 2120 nM.

Take `O=C(Nc1cc(Cl)cc(Cl)c1O)c1c(O)c(Cl)cc(Cl)c1Cl` [oxyclozanide, Oxyclozanide]: in data set [8] (comparison among formulations), the “efficiency in reducing bacterial load” value is “highest efficiency in reducing bacterial load of S. aureus”. The “bacterial load in repeated spot test, API in DMSO” value in [8] was “substantially decreased the bacterial load”.
